Test [1] addresses T1, human PPARγ receptor (Homo sapiens, UniProt P37231).
T1 construct: corresponding to Ser204-Tyr506 for human PPARγ1 receptor and human PPARγ2; expressed in transfected cells; host or cells: CV-1 cells (pSG5-based expression vector)
T1 sequence (P37231 204-505 limits assumed): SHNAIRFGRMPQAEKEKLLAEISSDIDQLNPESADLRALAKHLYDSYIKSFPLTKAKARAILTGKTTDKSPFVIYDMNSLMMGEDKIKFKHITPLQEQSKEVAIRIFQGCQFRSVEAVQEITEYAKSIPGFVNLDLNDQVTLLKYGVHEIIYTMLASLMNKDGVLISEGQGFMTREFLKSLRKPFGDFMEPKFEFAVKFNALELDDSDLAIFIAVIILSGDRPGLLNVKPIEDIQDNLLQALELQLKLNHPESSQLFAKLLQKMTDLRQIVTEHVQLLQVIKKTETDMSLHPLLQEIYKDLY
As to the kind of experiment: Luciferase reporter assay of PPARγ agonist activity (Gal4-PPARγ chimera receptor in CV-1 cells). To be noted: luciferase activity with 1 μM Pioglitazone taken as 100, read-out: PPAR γ agonist activity, relative activity; for Emax at 0.1 µM: CV-1, 0.1 μM compound; for Emax at 1 µM: CV-1, 1 μM compound; for Emax at 10 µM: CV-1, 10 μM compound. It counts as cell-based. The procedure:
(§1) Measurement of PPARα Agonist Activity and PPARγ Agonist Activity
(§2) 1. Materials for Assay of Luciferase Using Human PPARα and PPARγ Receptors
(§3) The entire procedure was carried out according to the fundamental methods of genetic engineering and the ordinary method in the yeast one-hybrid or two-hybrid system was applied.
(§4) PGL2-UAS5-TK-luc was prepared as a reporter plasmid carrying a response sequence of Gal4 protein as a basic transcription factor of yeast, an enhancer sequence with five repeat part of UAS, a luciferase gene (luc) under the control of timidine kinase (TK) promoter. Specifically, a DNA fragment encoding a TK promoter (−105/+51) on the downstream side of an enhancer sequence comprising two time repeat of UAS was amplified by PCR using pRL-TK carrying a TK promoter (Promega, Trade name: Catalogue No. E2241) as the template and the primers: […]
(§5) After the fragment was cleaved with XhoI-Hind III, pGL2-UAS2-TK-luc was obtained by inserting the resultant fragment into the XhoI-Hind III site located on the upstream side of a luciferase structural gene on pGL2-Basic vector (Promega, Trade name: Catalogue No. E1641).
(§6) After cleavage of a synthetic DNA as an enhancer sequence comprising three time repeat of Gal4 response sequence (SEQ ID NO: 3): 5′-ATTGGTAC([…])×3 AGATCTCGAC) using KpnI and BgIII was carried out, pGL2-UAS5-TK-luc was prepared by inserting the resulting fragment into the KpnI-BgIIIb site of pGL2-UAS2-TK-luc.
(§7) A vector for expression of a chimera receptor protein, in which a ligand binding region of an internuclear receptor human PPARα or PPARγ receptor was fused with the carboxyl terminal of a DNA binding region of yeast Ga14 protein, was prepared as follows:
(§8) The structural gene of pSG5 (STRATAGENE, Trade Name: Catalogue No. 216201) as the basic expression vector was changed for the chimera receptor except that the promoter-enhancer region was maintained as it was.
(§9) The DNA encoding the ligand binding region of the human PPARα or PPARγ receptor was fused on the downstream side of the DNA encoding the DNA binding region and the amino acid sequence from 1 to 147 positions of Ga14 protein so that their reading frames were fitted and the resulting fused DNA was inserted into pSG5 (trade name) on the down stream side of the promoter-enhancer region. In this step, the DNA sequence was arranged so that a signal for transfer into the nucleus (Ala Pro Lys Lys Lys Arg Lys Val Gly (SEQ ID: No: 4) derived from SV-40T antigen was located on the amino terminal of the ligand binding region of PPARα or PPARγ receptor in order to localize the chimera receptor in the nucleus.
(§10) Based on comparison of the human PPAR receptors described in R. Mukherjee et al., [see J. Steroid Biochem. Molec. Biol., Vol. 51, p157 (1994)] and M. E. Green et al., [see Gene Expression, Vol. 4, p281 (1995))], as the structural gene part used for the ligand binding region PPARα or PPARγ, the human PPARα ligand binding region: Ser167-Tyr468; and the PPARγ ligand binding region: Ser176-Tyr478 were used, which had the same sequences corresponding to Ser204-Tyr506 for human PPARγ1 receptor and human PPARγ2, respectively.
(§11) In order to monitor influence against the basic transcription, an expression vector was prepared which carried a DNA encoding only the DNA binding region and the amino acid sequence from 1 to 147 position of Ga14 protein defective in its PPAR ligand binding region and a signal for transfer into the nucleus of SV-40T-antigen.
(§12) 2. Assay of Luciferase Using Human PPARα or PPARγ Receptor
(§13) CV-1 cells used as a host cell were cultivated according to an ordinary method. Specifically, a fetal bovine serum (Intergent, Catalogue No. 1020-90) was added to a Dulbecco's modified Eagle's medium (DMEM) so that the final concentration became 10%. Further, penicillin G (50 U/ml) and streptomycin sulfate (50 μg/ml) were added. Cultivation was conducted in the resulting medium in a 5% carbon dioxide gas at 37° C. […]
Background: Reporter assays use an easily measured gene product as a stand-in for the process of interest.

In test [2] the target is T2, human PPARα receptor (Homo sapiens, UniProt Q07869).
T2 construct: expressed in transfected cells; host or cells: CV-1 cells (pSG5-based expression vector)
T2 sequence (Q07869 167-468): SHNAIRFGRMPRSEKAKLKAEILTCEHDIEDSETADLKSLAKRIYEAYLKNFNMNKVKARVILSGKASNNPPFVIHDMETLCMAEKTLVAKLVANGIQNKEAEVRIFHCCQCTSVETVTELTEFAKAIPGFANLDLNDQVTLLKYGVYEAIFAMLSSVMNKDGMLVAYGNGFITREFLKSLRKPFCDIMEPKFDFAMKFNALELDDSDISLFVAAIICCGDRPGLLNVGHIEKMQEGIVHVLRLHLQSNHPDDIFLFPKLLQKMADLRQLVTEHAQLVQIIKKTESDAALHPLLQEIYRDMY
The experiment in a line: Luciferase reporter assay of PPARα agonist activity (Gal4-PPARα chimera receptor in CV-1 cells). It counts as cell-based. The conditions noted are these: luciferase activity with 10 μM Wy-14,643 taken as 100, read-out: PPARα agonist activity, relative activity; for Emax at 1 µM: CV-1, 1 μM compound; for Emax at 10 µM: CV-1, 10 μM compound; for Emax at 0.1 µM: CV-1, 0.1 μM compound. Here is the method:
as §1, §2, §3, §4, §5, §6, §7, §8, §9, §10, §11, §12, §13

For test [3], the system named is KK-Ay/Ta Jci type 2 diabetes mice. As to the kind of experiment: In-vivo blood sugar and lipid reduction in diabetes model mice (KKAy mice). More on the design: species or system mouse. To be noted: 30 mg/kg orally one time per day for 4 days, 5th day vs 1st day. The procedure: Test for in-vivo Evaluation of the Activities for Blood Sugar Reduction and Lipid Reduction Using Diabetes Model Mice (KKAy Mice)
Type 2 diabetes mice “KK-Ay/Ta Jci” (male, Clea Japan, Inc., 10-week old) put in cages were used (each cage contained 5 mice). In the morning of the 1st day of test start, a blood was collected from the orbital vein of each mouse. The blood sugar value in the blood was measured by subjecting the blood to deproteinization using perchloric acid, subjecting the resulting material to centrifugation, and subjecting the resulting supernatant liquid to a new blood sugar test (Boehringer Mannheim). Further, the blood was subjected to centrifugation to obtain a plasma and the triglyceride concentration and free fatty acid concentration in the plasma were measured using Triglyceride E-Test Wako and NEFA-C Test Wako (Wako Pure Chemical Industries, Ltd.), respectively. Grouping was made so that the blood sugar values in individual groups became the same. Then, an Example 2 compound (exemplary compound No. 61) was suspended in a 0.5% aqueous CMC solution and administered orally one time per day for 4 days. In the 5th day of test, blood collection was made to measure blood sugar value, triglyceride concentration and free fatty acid concentration. Incidentally, a group to which only the 0.5% aqueous CMC solution was administered, was used as a control group; and Pioglitazone was used in a positive control group. The reduction in parameter in each group was calculated using the following formula.
Reduction (%)={1−(parameter of 5th day in each group)/(parameter of 1st day in each group)}×100

Test [4] relates to TNFα transcription (human TNF transcription-controlling region). The experiment in a line: Inhibition of TNFα production: luciferase under human TNF transcription-controlling region in 3T3-L1 cell strain No. 46. It counts as cell-based. To be noted: 10 μM compound; luciferase activity with DMSO taken as 100 (no hTNF: 40%); 24 hours. The text has this:
Test for in-vitro Evaluation of the Action of Inhibiting the Production of Tumor Necrosis Factor α (TNFα) Using Lipocytes (Derived from 3T3-L1)
A luciferase gene was bonded to the downstream side of human TNF transcription-controlling region. The resulting material was stably inserted into the chromosomes of 3T3-L1 cells. The thus-obtained cell strain No. 46 was used for evaluation.
The cell strain No. 46 was cultivated according to an ordinary method. Specifically, a bovine serum (Cell Culture Technology, Catalogue No. CC017-502) was added to a Dulbecco's modified Eagle's medium (DMEM) so that the final concentration became 10%. Further, 50 U/ml of penicillin G, 50 ug/ml of streptomycin sulfate and 0.4 mg/ml of G418 were added. In the resulting medium was conducted cultivation in a 5% carbon dioxide gas at 37° C.
The cell strain No. 46 was planted into a PLL (poly L-lysine)-coated 48-well plate. When the cell strain reached confluence and then at least two days passed, the medium was substituted with the above medium containing 9 ng/m of hTNF (Genzyme) and an activity for TNFα transcription was induced. hTNF was added and, simultaneously therewith, a compound of the present invention was added so that the final concentration became 10 μM. 24 hours later, the cells were observed by a microscope. Then, the cells were fused and the luciferase activity was measured according to an ordinary method.
Regarding the activity for TNFα transcription, the luciferase activity when DMSO was added in place of the compound, was taken as 100; and the relative activity when 10 uM of the present compound was added, was shown in Table 1. Incidentally, the relative luciferase activity when no hTNF was added, was 40%.

Structures are written as SMILES.

`CCOC(Cc1ccc(OCc2cnc3ccc(OC)cc3c2OC(C)C)cc1)C(=O)O` (centres unmarked) [Example 2 (61), 2-ethoxy-3-{[4-(4-isopropoxy-6-methoxyquinoline-3-yl)methyloxy]phenyl}propanoic acid]: in test [1], the Emax at 0.1 µM amounted to 85% and the Emax at 1 µM is 114%. In addition, in test [2], the Emax at 1 µM was 10.4% and the Emax at 10 µM came to 24.6%. In addition, the “Reduction in blood sugar (%)” value in test [3] was found to be 50%. Further, in test [3] (plasma), the “Reduction in free fatty acid (%)” value is recorded as 46% and the “Reduction in triglyceride (%)” value is given as 57%.

On to `CCOC(Cc1ccc(OCc2cnc3ccc(OC)cc3c2OC(C)C)cc1)C(N)=O` (centres unmarked) [Example 3 (102), 2-ethoxy-3-{[4-(4-isopropoxy-6-methoxyquinoline-3-yl)methyloxy]phenyl}propanoic acid amide], for which, in test [1], the Emax at 0.1 µM stood at 74.1%, the Emax at 1 µM was found to be 114% and the Emax at 10 µM came out at 108%. For the same compound, in test [2], the Emax at 0.1 µM was 0.4%, the Emax at 1 µM was 0.9% and the Emax at 10 µM is 8.5%. For the same compound, the “Activity for TNFα transcription, relative activity” value (“Activity … relative activity” for short) in test [4] is 71.7.

For `CCCCNC(=O)C(Cc1ccc(OCc2cnc3ccc(OC)cc3c2OC(C)C)cc1)OCC` (centres unmarked) [Example 4 (104), 2-ethoxy-3-{[4-(4-isopropoxy-6-methoxyquinoline-3-yl)methyloxy]phenyl}propanoic acid N-butylamide], in test [1], the Emax at 0.1 µM stood at 0.4%, the Emax at 1 µM is 1.1% and the Emax at 10 µM was determined as 14.9%. Also, in test [2], the Emax at 0.1 µM is 0.3%, the Emax at 1 µM amounted to 0.3% and the Emax at 10 µM is 0.3%. Also, in test [4], the “Activity … relative activity” value is given as 64.0.

As for `CNC(=O)C(Cc1ccc(OCc2cnc3ccc(OC)cc3c2OC(C)C)cc1)C(C)=O` (centres unmarked) [Example 24 (141), 2-{[4-(4-isopropoxy-6-methoxyquinoline-3-yl)methyloxy]phenylmethyl}-3-oxobutanoic acid N-methylamide], in test [1], the Emax at 0.1 µM amounted to 0.8%, the Emax at 1 µM was 1.2% and the Emax at 10 µM is 9.4%. Besides, the “Activity … relative activity” value in test [4] is reported as 71.6.

For `COc1ccc2ncc(COc3ccc(C=C(C(C)=O)C(C)=O)cc3)c(OC(C)C)c2c1` [Example 26 (147), 3-{[4-(4-isopropoxy-6-methoxyquinoline-3-yl)methyloxy]phenylmethylene}-2,4-dioxopentane], in test [1], the Emax at 0.1 µM worked out at 0.1%, the Emax at 1 µM stood at 3.7% and the Emax at 10 µM came out at 12.8%. The “Activity … relative activity” value in test [4] stood at 59.0.

Source of the values: patent US20030212100A1, “Quinoline derivatives and medicinal use thereof” (priority 2000, published 2003).
